From the NIST ThermoML archive (doi:10.1016/j.jct.2012.02.034)

Assay: excess molar enthalpy (molar enthalpy of mixing); xn = mol fraction of the nth substance listed
Conditions: 313.15 K, Fluid (supercritical or subcritical phases), Flow calorimetry

CCOC(C)=O [ethyl acetate] + O=C=O
Conditions	excess molar enthalpy [kJ/mol]
9000 kPa, x2 = 0.087	-0.453
9000 kPa, x2 = 0.172	-0.947
9000 kPa, x2 = 0.256	-1.36
9000 kPa, x2 = 0.381	-1.92
9000 kPa, x2 = 0.462	-2.2
9000 kPa, x2 = 0.542	-2.52
9000 kPa, x2 = 0.66	-2.86
9000 kPa, x2 = 0.737	-3.04
9000 kPa, x2 = 0.814	-2.98
9000 kPa, x2 = 0.889	-2.66
9000 kPa, x2 = 0.926	-2.26
9000 kPa, x2 = 0.963	-1.58
12000 kPa, x2 = 0.123	-0.419
12000 kPa, x2 = 0.235	-0.776
12000 kPa, x2 = 0.338	-1.01
12000 kPa, x2 = 0.432	-1.17
12000 kPa, x2 = 0.519	-1.29
12000 kPa, x2 = 0.599	-1.37
12000 kPa, x2 = 0.673	-1.4
12000 kPa, x2 = 0.742	-1.35
12000 kPa, x2 = 0.806	-1.26
12000 kPa, x2 = 0.866	-1.1
12000 kPa, x2 = 0.949	-0.669
12000 kPa, x2 = 0.975	-0.371
15000 kPa, x2 = 0.132	-0.362
15000 kPa, x2 = 0.25	-0.632
15000 kPa, x2 = 0.356	-0.871
15000 kPa, x2 = 0.452	-1.01
15000 kPa, x2 = 0.539	-1.15
15000 kPa, x2 = 0.618	-1.19
15000 kPa, x2 = 0.724	-1.15
15000 kPa, x2 = 0.788	-1.02
15000 kPa, x2 = 0.818	-0.948
15000 kPa, x2 = 0.875	-0.762
15000 kPa, x2 = 0.927	-0.518
15000 kPa, x2 = 0.953	-0.375
18000 kPa, x2 = 0.071	-0.258
18000 kPa, x2 = 0.137	-0.424
18000 kPa, x2 = 0.259	-0.693
18000 kPa, x2 = 0.367	-0.843
18000 kPa, x2 = 0.463	-0.938
18000 kPa, x2 = 0.55	-0.99
18000 kPa, x2 = 0.629	-1
18000 kPa, x2 = 0.7	-0.942
18000 kPa, x2 = 0.825	-0.754
18000 kPa, x2 = 0.88	-0.607
18000 kPa, x2 = 0.931	-0.414
18000 kPa, x2 = 0.955	-0.312
